Assay results: PubChem BioAssay (NCI)
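Compound exposure: 48 hours, 5 concentrations, 96-well plates. The concentration for 50% growth inhibition is given as GI50. The concentration for full growth arrest is given as TGI.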

Columns and labels:
Assay in all cases: DTP human tumour cell line panel, 48 h
NCI/ADR-RES ovarian = tested on: NCI/ADR-RES ovarian
SN12C renal = tested on: SN12C renal
HT29 colon = tested on: HT29 colon
MOLT-4 leukemia = tested on: MOLT-4 leukemia
SW-620 colon = tested on: SW-620 colon
TK-10 renal = tested on: TK-10 renal
786-0 renal = tested on: 786-0 renal
RXF 393 renal = tested on: RXF 393 renal
A549 NSCLC = tested on: A549 NSCLC
SK-OV-3 ovarian = tested on: SK-OV-3 ovarian
NCI-H522 lung = tested on: NCI-H522 lung
SF-268 CNS = tested on: SF-268 CNS
HCT-15 colon = tested on: HCT-15 colon
HOP-62 NSCLC = tested on: HOP-62 NSCLC
NCI-H23 lung = tested on: NCI-H23 lung
UACC-62 melanoma = tested on: UACC-62 melanoma
MCF7 breast = tested on: MCF7 breast
K-562 leukemia = tested on: K-562 leukemia
COLO 205 colon = tested on: COLO 205 colon
HCT-116 colon = tested on: HCT-116 colon
OVCAR-4 ovarian = tested on: OVCAR-4 ovarian
HCC-2998 colon = tested on: HCC-2998 colon
IGROV1 ovarian = tested on: IGROV1 ovarian
SF-539 CNS = tested on: SF-539 CNS
SF-295 CNS = tested on: SF-295 CNS
T-47D breast = tested on: T-47D breast
SK-MEL-2 melanoma = tested on: SK-MEL-2 melanoma
CCRF-CEM leukemia = tested on: CCRF-CEM leukemia
PC-3 prostate = tested on: PC-3 prostate
SNB-75 CNS = tested on: SNB-75 CNS
M14 melanoma = tested on: M14 melanoma
SNB-19 CNS = tested on: SNB-19 CNS
HL-60(TB) leukemia = tested on: HL-60(TB) leukemia
UO-31 renal = tested on: UO-31 renal
U251 CNS = tested on: U251 CNS
BT-549 breast = tested on: BT-549 breast
MALME-3M melanoma = tested on: MALME-3M melanoma
DU-145 prostate = tested on: DU-145 prostate
NCI-H460 lung = tested on: NCI-H460 lung
HS 578T breast = tested on: HS 578T breast
KM12 colon = tested on: KM12 colon
SK-MEL-5 melanoma = tested on: SK-MEL-5 melanoma
OVCAR-5 ovarian = tested on: OVCAR-5 ovarian
HOP-92 NSCLC = tested on: HOP-92 NSCLC
OVCAR-8 ovarian = tested on: OVCAR-8 ovarian
LOX IMVI melanoma = tested on: LOX IMVI melanoma
OVCAR-3 ovarian = tested on: OVCAR-3 ovarian
ACHN renal = tested on: ACHN renal
EKVX NSCLC = tested on: EKVX NSCLC
A498 renal = tested on: A498 renal
UACC-257 melanoma = tested on: UACC-257 melanoma
RPMI-8226 leukemia = tested on: RPMI-8226 leukemia
NCI-H226 lung = tested on: NCI-H226 lung
SK-MEL-28 melanoma = tested on: SK-MEL-28 melanoma
MDA-MB-231 breast = tested on: MDA-MB-231 breast
MDA-MB-435 = tested on: MDA-MB-435
SR leukemia = tested on: SR leukemia

Work on `CC(C)(C)OC(=O)N1CC(Cn2cc(C(F)(F)F)c3c(Cl)ncnc32)C1` yielded a GI50 (NCI/ADR-RES ovarian) of 13.9 µM, a TGI (NCI/ADR-RES ovarian) of 65.4 µM and a GI50 (SN12C renal) of 2.32 µM. For the same molecule, the TGI (SN12C renal) was 6.12 µM, the GI50 (HT29 colon) was 2.6 µM and the TGI (HT29 colon) was 6.67 µM. The GI50 (MOLT-4 leukemia) was 2.39 µM, the TGI (MOLT-4 leukemia) was 6.28 µM and the GI50 (SW-620 colon) was 3.3 µM. For the same molecule, the TGI (SW-620 colon) was 10.6 µM, the GI50 (TK-10 renal) was 24.6 µM and the TGI (TK-10 renal) was 62.5 µM. The GI50 (786-0 renal) was 16.8 µM, the TGI (786-0 renal) was 36.7 µM and the GI50 (RXF 393 renal) was 1.43 µM. It also gave a TGI (RXF 393 renal) of 3.59 µM, a GI50 (A549 NSCLC) of 14 µM and a TGI (A549 NSCLC) of 28.2 µM. The GI50 (SK-OV-3 ovarian) was 2.91 µM, the TGI (SK-OV-3 ovarian) was 8.21 µM and the GI50 (NCI-H522 lung) was 13.3 µM. The TGI (NCI-H522 lung) was 28.4 µM, the GI50 (SF-268 CNS) was 1.75 µM and the TGI (SF-268 CNS) was 3.4 µM. It also gave a GI50 (HCT-15 colon) of 2 µM, a TGI (HCT-15 colon) of 4.4 µM and a GI50 (HOP-62 NSCLC) of 1.95 µM. The TGI (HOP-62 NSCLC) was 3.93 µM, the GI50 (NCI-H23 lung) was 1.84 µM and the TGI (NCI-H23 lung) was 3.58 µM. For the same molecule, the GI50 (UACC-62 melanoma) was 1.85 µM, the TGI (UACC-62 melanoma) was 3.65 µM and the GI50 (MCF7 breast) was 2.13 µM. It also gave a TGI (MCF7 breast) of 6.15 µM, a GI50 (K-562 leukemia) of 2.81 µM and a TGI (K-562 leukemia) greater than 100 µM. It also gave a GI50 (COLO 205 colon) of 12.6 µM, a TGI (COLO 205 colon) of 28.5 µM and a GI50 (HCT-116 colon) of 1.86 µM. The TGI (HCT-116 colon) was 3.35 µM, the GI50 (OVCAR-4 ovarian) was 10.2 µM and the TGI (OVCAR-4 ovarian) was 23.2 µM. The GI50 (HCC-2998 colon) was 1.79 µM, the TGI (HCC-2998 colon) was 3.34 µM and the GI50 (IGROV1 ovarian) was 1.86 µM. For the same molecule, the TGI (IGROV1 ovarian) was 3.92 µM, the GI50 (SF-539 CNS) was 11.3 µM and the TGI (SF-539 CNS) was 24.6 µM. For the same molecule, the GI50 (SF-295 CNS) was 1.99 µM, the TGI (SF-295 CNS) was 4.75 µM and the GI50 (T-47D breast) was 5.51 µM. The TGI (T-47D breast) was 27.1 µM, the GI50 (SK-MEL-2 melanoma) was 1.84 µM and the TGI (SK-MEL-2 melanoma) was 3.47 µM. It also gave a GI50 (CCRF-CEM leukemia) of 3.05 µM, a TGI (CCRF-CEM leukemia) of 9.19 µM and a GI50 (PC-3 prostate) of 1.76 µM. It also gave a TGI (PC-3 prostate) of 3.5 µM, a GI50 (SNB-75 CNS) of 4.99 µM and a TGI (SNB-75 CNS) of 18.1 µM. For the same molecule, the GI50 (M14 melanoma) was 1.72 µM, the TGI (M14 melanoma) was 3.38 µM and the GI50 (SNB-19 CNS) was 1.8 µM. For the same molecule, the TGI (SNB-19 CNS) was 3.33 µM, the GI50 (HL-60(TB) leukemia) was 2.37 µM and the TGI (HL-60(TB) leukemia) was 5.82 µM. It also gave a GI50 (UO-31 renal) of 2.71 µM, a TGI (UO-31 renal) of 10.8 µM and a GI50 (U251 CNS) of 1.79 µM. It also gave a TGI (U251 CNS) of 3.26 µM, a GI50 (BT-549 breast) of 1.62 µM and a TGI (BT-549 breast) of 3.06 µM. For the same molecule, the GI50 (MALME-3M melanoma) was 12.4 µM, the TGI (MALME-3M melanoma) was 26.6 µM and the GI50 (DU-145 prostate) was 1.79 µM. The TGI (DU-145 prostate) was 3.18 µM, the GI50 (NCI-H460 lung) was 2.06 µM and the TGI (NCI-H460 lung) was 3.99 µM. It also gave a GI50 (HS 578T breast) of 2.36 µM, a TGI (HS 578T breast) of 6.55 µM and a GI50 (KM12 colon) of 2.34 µM. For the same molecule, the TGI (KM12 colon) was 5.35 µM, the GI50 (SK-MEL-5 melanoma) was 1.79 µM and the TGI (SK-MEL-5 melanoma) was 3.21 µM. The GI50 (OVCAR-5 ovarian) was 20.5 µM, the TGI (OVCAR-5 ovarian) was 57.5 µM and the GI50 (HOP-92 NSCLC) was 4.5 µM. It also gave a TGI (HOP-92 NSCLC) of 21.4 µM, a GI50 (OVCAR-8 ovarian) of 1.84 µM and a TGI (OVCAR-8 ovarian) of 3.58 µM. It also gave a GI50 (LOX IMVI melanoma) of 1.75 µM, a TGI (LOX IMVI melanoma) of 3.27 µM and a GI50 (OVCAR-3 ovarian) of 1.92 µM. For the same molecule, the TGI (OVCAR-3 ovarian) was 3.6 µM, the GI50 (ACHN renal) was 15 µM and the TGI (ACHN renal) was 31.9 µM. It also gave a GI50 (EKVX NSCLC) of 2.63 µM, a TGI (EKVX NSCLC) of 10.2 µM and a GI50 (A498 renal) of 4.81 µM. The TGI (A498 renal) was 16.8 µM, the GI50 (UACC-257 melanoma) was 2.2 µM and the TGI (UACC-257 melanoma) was 5.43 µM. For the same molecule, the GI50 (RPMI-8226 leukemia) was 2.67 µM, the TGI (RPMI-8226 leukemia) was 6.33 µM and the GI50 (NCI-H226 lung) was 18.9 µM. It also gave a TGI (NCI-H226 lung) of 41.9 µM, a GI50 (SK-MEL-28 melanoma) of 1.91 µM and a TGI (SK-MEL-28 melanoma) of 3.53 µM. The GI50 (MDA-MB-231 breast) was 6.92 µM, the TGI (MDA-MB-231 breast) was 23.4 µM and the GI50 (MDA-MB-435) was 1.72 µM. The TGI (MDA-MB-435) was 3.14 µM, the GI50 (SR leukemia) was 0.726 µM and the TGI (SR leukemia) was greater than 100 µM.
